# Data taken from patent US5591714A, “Derivatives of A82846” (priority 1994, dated 1997).
# Legend:
# Assay in all cases: In vivo activity, experimentally infected mice (ED50)
# [1] = tested on: Streptococcus pneumoniae; conditions: Streptococcus pneumoniae infection; doses administered subcutaneously to mice 1 and 4 hours postinfection
# [2] = tested on: Staphylococcus aureus; conditions: Staphylococcus aureus infection; doses administered subcutaneously to mice 1 and 4 hours postinfection
# [3] = tested on: Streptococcus pyogenes; conditions: Streptococcus pyogenes infection; doses administered subcutaneously to mice 1 and 4 hours postinfection
structure (smiles),measurement,setting,value
CCCCCCCCN[C@@]1(C)C[C@H](O[C@H]2[C@H](Oc3c4cc5cc3Oc3ccc(cc3Cl)[C@@H](O[C@H]3C[C@](C)(NCCCCCCCC)[C@@H](O)[C@H](C)O3)[C@@H]3NC(=O)[C@H](NC(=O)[C@@H]5NC(=O)[C@H](CC(N)=O)NC(=O)[C@H](NC(=O)[C@@H](CC(C)C)NC)[C@H](O)c5ccc(c(Cl)c5)O4)c4ccc(O)c(c4)-c4c(O)cc(O)cc4[C@@H](C(=O)O)NC3=O)O[C@H](CO)[C@@H](O)[C@@H]2O)O[C@@H](C)[C@@H]1O [Compound 41],ED50,[1],0.32 mg/kg/2
same,ED50,[2],1.22 mg/kg/2
same,ED50,[3],0.18 mg/kg/2
CCCCCN[C@@]1(C)C[C@H](O[C@H]2[C@H](Oc3c4cc5cc3Oc3ccc(cc3Cl)[C@@H](O)[C@@H](NC(=O)[C@@H](CC(C)C)NC)C(=O)N[C@@H](CC(N)=O)C(=O)N[C@H]5C(=O)N[C@H]3C(=O)N[C@H](C(=O)N[C@H](C(=O)O)c5cc(O)cc(O)c5-c5cc3ccc5O)[C@H](O[C@H]3C[C@](C)(N)[C@@H](O)[C@H](C)O3)c3ccc(cc3)O4)O[C@H](CO)[C@@H](O)[C@@H]2O)O[C@@H](C)[C@@H]1O [Compound 5],ED50,[1],0.1 mg/kg/2
same,ED50,[2],0.92 mg/kg/2
same,ED50,[3],0.17 mg/kg/2
CN[C@H](CC(C)C)C(=O)N[C@H]1C(=O)N[C@@H](CC(N)=O)C(=O)N[C@H]2C(=O)N[C@H]3C(=O)N[C@H](C(=O)N[C@H](C(=O)O)c4cc(O)cc(O)c4-c4cc3ccc4O)[C@H](O[C@H]3C[C@](C)(N)[C@@H](O)[C@H](C)O3)c3ccc(cc3)Oc3cc2cc(c3O[C@@H]2O[C@H](CO)[C@@H](O)[C@H](O)[C@H]2O[C@H]2C[C@](C)(NCc3ccc(Cl)cc3)[C@@H](O)[C@H](C)O2)Oc2ccc(cc2Cl)[C@H]1O [Compound 20],ED50,[1],0.23 mg/kg/2
same,ED50,[2],> 2.0 mg/kg/2
same,ED50,[3],0.15 mg/kg/2
CCCCCN[C@@]1(C)C[C@H](O[C@H]2[C@H](Oc3c4cc5cc3Oc3ccc(cc3Cl)[C@@H](O[C@H]3C[C@](C)(NCCCCC)[C@@H](O)[C@H](C)O3)[C@@H]3NC(=O)[C@H](NC(=O)[C@@H]5NC(=O)[C@H](CC(N)=O)NC(=O)[C@H](NC(=O)[C@@H](CC(C)C)N(C)CCCCC)[C@H](O)c5ccc(c(Cl)c5)O4)c4ccc(O)c(c4)-c4c(O)cc(O)cc4[C@@H](C(=O)O)NC3=O)O[C@H](CO)[C@@H](O)[C@@H]2O)O[C@@H](C)[C@@H]1O [Compound 37],ED50,[1],0.88 mg/kg/2
same,ED50,[2],> 5.0 mg/kg/2
same,ED50,[3],1.09 mg/kg/2
CCCCCCCCN(C)[C@H](CC(C)C)C(=O)N[C@H]1C(=O)N[C@@H](CC(N)=O)C(=O)N[C@H]2C(=O)N[C@H]3C(=O)N[C@H](C(=O)N[C@H](C(=O)O)c4cc(O)cc(O)c4-c4cc3ccc4O)[C@H](O[C@H]3C[C@](C)(N)[C@@H](O)[C@H](C)O3)c3ccc(cc3)Oc3cc2cc(c3O[C@@H]2O[C@H](CO)[C@@H](O)[C@H](O)[C@H]2O[C@H]2C[C@](C)(N)[C@@H](O)[C@H](C)O2)Oc2ccc(cc2Cl)[C@H]1O [Compound 2],ED50,[1],1.25 mg/kg/2
same,ED50,[2],> 5.0 mg/kg/2
same,ED50,[3],0.79 mg/kg/2
CNC(CC(C)C)C(=O)NC1C(=O)NC(CC(N)=O)C(=O)NC2C(=O)NC3C(=O)NC(C(=O)NC(C(=O)O)c4cc(O)cc(O)c4-c4cc3ccc4O)C(OC3CC(C)(NCc4cccc(Cl)c4)C(O)C(C)O3)c3ccc(c(Cl)c3)Oc3cc2cc(c3OC2OC(CO)C(O)C(O)C2OC2CC(C)(NCc3cccc(Cl)c3)C(O)C(C)O2)Oc2ccc(cc2Cl)C1O (stereo not shown) [Compound 65],ED50,[1],0.11 mg/kg/2
same,ED50,[2],1.59 mg/kg/2
same,ED50,[3],0.15 mg/kg/2
CCCCCCCCCCN[C@@]1(C)C[C@H](O[C@H]2[C@H](Oc3c4cc5cc3Oc3ccc(cc3Cl)[C@@H](O)[C@@H](NC(=O)[C@@H](CC(C)C)NC)C(=O)N[C@@H](CC(N)=O)C(=O)N[C@H]5C(=O)N[C@H]3C(=O)N[C@H](C(=O)N[C@H](C(=O)O)c5cc(O)cc(O)c5-c5cc3ccc5O)[C@H](O[C@H]3C[C@](C)(N)[C@@H](O)[C@H](C)O3)c3ccc(cc3)O4)O[C@H](CO)[C@@H](O)[C@@H]2O)O[C@@H](C)[C@@H]1O [Compound 9],ED50,[3],0.68 mg/kg/2
CCCCCN[C@@]1(C)C[C@H](O[C@H]2[C@H](Oc3c4cc5cc3Oc3ccc(cc3Cl)[C@@H](O[C@H]3C[C@](C)(N)[C@@H](O)[C@H](C)O3)[C@@H]3NC(=O)[C@H](NC(=O)[C@@H]5NC(=O)[C@H](CC(N)=O)NC(=O)[C@H](NC(=O)[C@@H](CC(C)C)N(C)CCCCC)[C@H](O)c5ccc(c(Cl)c5)O4)c4ccc(O)c(c4)-c4c(O)cc(O)cc4[C@@H](C(=O)O)NC3=O)O[C@H](CO)[C@@H](O)[C@@H]2O)O[C@@H](C)[C@@H]1O [Compound 36],ED50,[1],0.29 mg/kg/2
same,ED50,[2],1.0 mg/kg/2
same,ED50,[3],0.38 mg/kg/2
CC(C)CC(C(=O)NC1C(=O)NC(CC(N)=O)C(=O)NC2C(=O)NC3C(=O)NC(C(=O)NC(C(=O)O)c4cc(O)cc(O)c4-c4cc3ccc4O)C(OC3CC(C)(N)C(O)C(C)O3)c3ccc(c(Cl)c3)Oc3cc2cc(c3OC2OC(CO)C(O)C(O)C2OC2CC(C)(N)C(O)C(C)O2)Oc2ccc(cc2Cl)C1O)N(C)Cc1ccccc1 (stereo not shown) [Compound 52],ED50,[1],0.75 mg/kg/2
same,ED50,[3],0.5 mg/kg/2
CN[C@H](CC(C)C)C(=O)N[C@H]1C(=O)N[C@@H](CC(N)=O)C(=O)N[C@H]2C(=O)N[C@H]3C(=O)N[C@H](C(=O)N[C@H](C(=O)O)c4cc(O)cc(O)c4-c4cc3ccc4O)[C@H](O[C@H]3C[C@](C)(NCCc4ccccc4)[C@@H](O)[C@H](C)O3)c3ccc(c(Cl)c3)Oc3cc2cc(c3O[C@@H]2O[C@H](CO)[C@@H](O)[C@H](O)[C@H]2O[C@H]2C[C@](C)(N)[C@@H](O)[C@H](C)O2)Oc2ccc(cc2Cl)[C@H]1O [Compound 44],ED50,[1],0.2 mg/kg/2
same,ED50,[2],0.3 mg/kg/2
same,ED50,[3],0.125 mg/kg/2
CCN(CC)c1ccc(CNC2(C)CC(OC3c4ccc(c(Cl)c4)Oc4cc5cc(c4OC4OC(CO)C(O)C(O)C4OC4CC(C)(NCc6ccc(N(CC)CC)cc6)C(O)C(C)O4)Oc4ccc(cc4Cl)C(O)C(NC(=O)C(CC(C)C)NC)C(=O)NC(CC(N)=O)C(=O)NC5C(=O)NC4C(=O)NC3C(=O)NC(C(=O)O)c3cc(O)cc(O)c3-c3cc4ccc3O)OC(C)C2O)cc1 (stereo not shown) [Compound 57],ED50,[3],< 0.62 mg/kg/2
CCCCCCCCN(C)[C@H](CC(C)C)C(=O)N[C@H]1C(=O)N[C@@H](CC(N)=O)C(=O)N[C@H]2C(=O)N[C@H]3C(=O)N[C@H](C(=O)N[C@H](C(=O)O)c4cc(O)cc(O)c4-c4cc3ccc4O)[C@H](O[C@H]3C[C@](C)(N)[C@@H](O)[C@H](C)O3)c3ccc(c(Cl)c3)Oc3cc2cc(c3O[C@@H]2O[C@H](CO)[C@@H](O)[C@H](O)[C@H]2O[C@H]2C[C@](C)(N)[C@@H](O)[C@H](C)O2)Oc2ccc(cc2Cl)[C@H]1O [Compound 39],ED50,[1],0.34 mg/kg/2
same,ED50,[2],1.22 mg/kg/2
same,ED50,[3],0.18 mg/kg/2
CCCCCN[C@@]1(C)C[C@H](O[C@H]2[C@H](Oc3c4cc5cc3Oc3ccc(cc3Cl)[C@@H](O)[C@@H](NC(=O)[C@@H](CC(C)C)N(C)CCCCC)C(=O)N[C@@H](CC(N)=O)C(=O)N[C@H]5C(=O)N[C@H]3C(=O)N[C@H](C(=O)N[C@H](C(=O)O)c5cc(O)cc(O)c5-c5cc3ccc5O)[C@H](O[C@H]3C[C@](C)(NCCCCC)[C@@H](O)[C@H](C)O3)c3ccc(cc3)O4)O[C@H](CO)[C@@H](O)[C@@H]2O)O[C@@H](C)[C@@H]1O [Compound 8],ED50,[1],> 4.0 mg/kg/2
same,ED50,[2],> 4.0 mg/kg/2
same,ED50,[3],2.69 mg/kg/2
CNC(CC(C)C)C(=O)NC1C(=O)NC(CC(N)=O)C(=O)NC2C(=O)NC3C(=O)NC(C(=O)NC(C(=O)O)c4cc(O)cc(O)c4-c4cc3ccc4O)C(OC3CC(C)(NCC(c4ccccc4)c4ccccc4)C(O)C(C)O3)c3ccc(c(Cl)c3)Oc3cc2cc(c3OC2OC(CO)C(O)C(O)C2OC2CC(C)(N)C(O)C(C)O2)Oc2ccc(cc2Cl)C1O (stereo not shown) [Compound 46],ED50,[1],0.22 mg/kg/2
same,ED50,[2],0.75 mg/kg/2
same,ED50,[3],0.14 mg/kg/2
CNC(CC(C)C)C(=O)NC1C(=O)NC(CC(N)=O)C(=O)NC2C(=O)NC3C(=O)NC(C(=O)NC(C(=O)O)c4cc(O)cc(O)c4-c4cc3ccc4O)C(OC3CC(C)(NCc4ccccc4)C(O)C(C)O3)c3ccc(c(Cl)c3)Oc3cc2cc(c3OC2OC(CO)C(O)C(O)C2OC2CC(C)(NCc3ccccc3)C(O)C(C)O2)Oc2ccc(cc2Cl)C1O (stereo not shown) [Compound 53],ED50,[1],0.18 mg/kg/2
same,ED50,[2],1.25 mg/kg/2
same,ED50,[3],0.2 mg/kg/2
CNC(CC(C)C)C(=O)NC1C(=O)NC(CC(N)=O)C(=O)NC2C(=O)NC3C(=O)NC(C(=O)NC(C(=O)O)c4cc(O)cc(O)c4-c4cc3ccc4O)C(OC3CC(C)(NCc4ccc(Cl)cc4)C(O)C(C)O3)c3ccc(c(Cl)c3)Oc3cc2cc(c3OC2OC(CO)C(O)C(O)C2OC2CC(C)(NCc3ccc(Cl)cc3)C(O)C(C)O2)Oc2ccc(cc2Cl)C1O (stereo not shown) [Compound 61],ED50,[1],0.08 mg/kg/2
same,ED50,[2],1.83 mg/kg/2
same,ED50,[3],0.10 mg/kg/2
CNC(CC(C)C)C(=O)NC1C(=O)NC(CC(N)=O)C(=O)NC2C(=O)NC3C(=O)NC(C(=O)NC(C(=O)O)c4cc(O)cc(O)c4-c4cc3ccc4O)C(OC3CC(C)(NCCCc4ccccc4)C(O)C(C)O3)c3ccc(c(Cl)c3)Oc3cc2cc(c3OC2OC(CO)C(O)C(O)C2OC2CC(C)(NCCCc3ccccc3)C(O)C(C)O2)Oc2ccc(cc2Cl)C1O (stereo not shown) [Compound 50],ED50,[1],1.02 mg/kg/2
same,ED50,[2],> 5.0 mg/kg/2
same,ED50,[3],0.6 mg/kg/2
CNC(CC(C)C)C(=O)NC1C(=O)NC(CC(N)=O)C(=O)NC2C(=O)NC3C(=O)NC(C(=O)NC(C(=O)O)c4cc(O)cc(O)c4-c4cc3ccc4O)C(OC3CC(C)(NCc4ccc(Br)cc4)C(O)C(C)O3)c3ccc(c(Cl)c3)Oc3cc2cc(c3OC2OC(CO)C(O)C(O)C2OC2CC(C)(NCc3ccc(Br)cc3)C(O)C(C)O2)Oc2ccc(cc2Cl)C1O (stereo not shown) [Compound 59],ED50,[1],< 0.31 mg/kg/2
same,ED50,[2],3.16 mg/kg/2
same,ED50,[3],0.25 mg/kg/2
CN[C@H](CC(C)C)C(=O)N[C@H]1C(=O)N[C@@H](CC(N)=O)C(=O)N[C@H]2C(=O)N[C@H]3C(=O)N[C@H](C(=O)N[C@H](C(=O)O)c4cc(O)cc(O)c4-c4cc3ccc4O)[C@H](O[C@H]3C[C@](C)(N)[C@@H](O)[C@H](C)O3)c3ccc(cc3)Oc3cc2cc(c3O[C@@H]2O[C@H](CO)[C@@H](O)[C@H](O)[C@H]2O[C@H]2C[C@](C)(NCC(c3ccccc3)c3ccccc3)[C@@H](O)[C@H](C)O2)Oc2ccc(cc2Cl)[C@H]1O [Compound 26],ED50,[1],0.47 mg/kg/2
same,ED50,[2],> 3.0 mg/kg/2
same,ED50,[3],0.48 mg/kg/2
